Experimental findings from ChEMBL document CHEMBL1150825, “Anti-HIV prenylated flavonoids from Monotes africanus” (J Nat Prod, 2001) are described below.

≈ marks a conversion by molar mass, not a printed value.

In one test the test system is Human immunodeficiency virus. The test can be described thus: Antiviral activity against HIV assessed as protection against virus-induced cytopathicity by cell based XTT assay. It is filed as functional, organism-based.
Settings: not given; call rule not given here
In general, EC50 refers to the concentration at which the effect is half-maximal. With `C=CC(C)(C)c1c(O)cc2c(c1O)C(=O)C[C@@H](c1ccc(O)cc1)O2`, the concentration for a half-maximal effect (EC50) result is “Not Active”. For `CC(C)=CCC/C(C)=C/Cc1c(O)cc2c(c1O)C(=O)[C@H](O)[C@@H](c1ccc(O)cc1)O2` [BONANNIOL A], the EC50 result is listed as “Not Active”.

In the case of `CC(C)=CCC/C(C)=C/Cc1c(O)cc2oc(-c3ccc(O)cc3)c(O)c(=O)c2c1O` [MACARANGIN], the 50% effective concentration (EC50) entry was “Not Active”.

The test is the same for the next values; noted with them: Human immunodeficiency virus 1.
By IC50 is commonly meant the concentration that inhibits the measured activity by half. For `CC(C)=CCc1c(O)c(CC=C(C)C)c2c(c1O)C(=O)[C@H](O)[C@@H](c1ccc(O)cc1)O2`, the concentration for half-maximal inhibition (IC50) worked out at 4.7 µg/mL (≈ 11.1 µM). In the case of `CC(C)=CCc1c(O)c(CC=C(C)C)c2oc(-c3ccc(O)cc3)c(O)c(=O)c2c1O`, the IC50 was 5.8 µg/mL (≈ 13.7 µM).

For `CC(C)=CCc1c(O)c(CC=C(C)C)c2c(c1O)C(=O)C[C@@H](c1ccc(O)cc1)O2` [LONCHOCARPOL A], the IC50 came to 2.7 µg/mL (≈ 6.61 µM).

Still in this test, the particulars now being: Human immunodeficiency virus 1; read-out: EC50.
On to `CC(C)=CCc1c(O)c(CC=C(C)C)c2c(c1O)C(=O)[C@H](O)[C@@H](c1ccc(O)cc1)O2`, for which the 50% effective concentration (EC50) worked out at 2.1 µg/mL (≈ 4.95 µM). Still for that read-out and setting: the result for `CC(C)=CCc1c(O)c(CC=C(C)C)c2oc(-c3ccc(O)cc3)c(O)c(=O)c2c1O` reads 2.4 µg/mL (≈ 5.68 µM); that for `CC(C)=CCc1c(O)c(CC=C(C)C)c2c(c1O)C(=O)C[C@@H](c1ccc(O)cc1)O2` [LONCHOCARPOL A], 1.3 µg/mL (≈ 3.18 µM).
